Holding throughout (assay type): cell-based
For one test, the system named is eIF2B mutant B3 I346T. Nature of the test: ATF4-Luc assay, VWMD eIF2B mutant HEK293T ATF4-Fluc cells, B3 I346T. The following applies: Homo sapiens, HEK-293T. The method, then: (§1) In order to test exemplary compounds of the invention in a cellular context, a stable VWMD cell line was first constructed. The ATF4 reporter was prepared by fusing the human full-length ATF4 5′-UTR (NCBI Accession No. BC022088.2) in front of the firefly luciferase (FLuc) coding sequence lacking the initiator methionine as described in Sidrauski et al (eLife 2013). The construct was used to produce recombinant retroviruses using standard methods and the resulting viral supernatant was used to transduce HEK293T cells, which were then subsequently selected with puromycin to generate a stable cell line.
(§2) HEK293T cells carrying the ATF4 luciferase reporter were plated on polylysine coated 384-well plates (Greiner Bio-one) at 30,000 cells per well. Cells were treated the next day with 1 μg/mL tunicamycin and 200 nM of a compound of Formula (I) for 7 hours. Luminescence was measured using One Glo (Promega) as specified by the manufacturer. Cells were maintained in DMEM with L-glutamine supplemented with 10% heat-inactivated FBS (Gibco) and Antibiotic-Antimycotic solution (Gibco).
(§3) VWMD mutations were introduced into the genome of the HEK293T ATF4-Fluc stable cell lines by using Gene Art CRISPR nuclease vector with OFP Reporter kit (ThermoFisher; see Table 3 below). Guide RNAs were designed using the CRISPR Design Tool (http://crispr.mit.edu) and ligated into the CRISPR OFP Nuclease Vector. To obtain homology directed repair (HDR) incorporating VWMD point mutations in the genome, 150 bp ssDNA ultramer oligos were synthesized by Integrated DNA Technologies containing specific mutations of interest. In addition to the VWMD mutations, the ssDNA HDR templates contained a silent mutation to the PAM site of the CRISPR gRNA sequence (to avoid further Cas9 cutting) and 75 bp of homology on each side of the mutation.
(§4) HEK293T ATF4-Fluc cells were transfected with 500 ng of the CRISPR OFP Nuclease Vector and 1 μL of 10 μM ssDNA HDR template using lipofectamine 3000 (ThermoFisher) or SF Cell Line 4D-nucleofector X Kit (Lonza) according to the manufacturer's instructions. After 2-3 days of recovery, single cells were sorted for positive OFP expression on a FACS Aria II (BD Biosciences) into wells of a 96 well plate and allowed to recover for 1-2 weeks.
(§5) The resulting clones were surveyed for CRISPR editing and HDR by harvesting the genomic DNA with the PureLink Genomic DNA kit (ThermoFisher), amplifying a […] locus near the editing site, and sequencing the amplicon. […] Typical clones obtained were hemizygous for the VWMD point mutation, with one or two alleles harboring the desired mutation, and the remaining alleles knocked out (edited to produce a premature stop codon).

The subject of another test is eIF2B mutant B1 V184. Nature of the test: ATF4-Luc assay, VWMD eIF2B mutant HEK293T ATF4-Fluc cells, B1 V184. The following applies: Homo sapiens, HEK-293T. The method, then:
as §1, §2, §3, §4, §5

For a further test, the system named is eIF2B mutant B4 R483W. Nature of the test: ATF4-Luc assay, VWMD eIF2B mutant HEK293T ATF4-Fluc cells, B4 R483W. The following applies: Homo sapiens, HEK-293T. The procedure:
as §1, §2, §3, §4, §5

In another test the test system is eIF2B mutant B5 R113H. Nature of the test: ATF4-Luc assay, VWMD eIF2B mutant HEK293T ATF4-Fluc cells, B5 R113H. The following applies: Homo sapiens, HEK-293T. The method, then: as §1, §2, §3, §4, §5
A further test concerns eIF2B mutant B5 R195H. Nature of the test: ATF4-Luc assay, VWMD eIF2B mutant HEK293T ATF4-Fluc cells, B5 R195H. The following applies: Homo sapiens, HEK-293T. The procedure:
as §1, §2, §3, §4, §5

A further test deals with eIF2B mutant B3 H341Q. Nature of the test: ATF4-Luc assay, VWMD eIF2B mutant HEK293T ATF4-Fluc cells, B3 H341Q. The following applies: Homo sapiens, HEK-293T. The procedure: as §1, §2, §3, §4, §5
The test system of another test is eIF2B mutant B4 R357W. Nature of the test: ATF4-Luc assay, VWMD eIF2B mutant HEK293T ATF4-Fluc cells, B4 R357W. The following applies: Homo sapiens, HEK-293T. The method, then: as §1, §2, §3, §4, §5
The subject of test [1] is ATF4 luciferase reporter in HEK293T cells. Nature of the test: ATF4-Luc assay, HEK293T cells carrying the ATF4 luciferase reporter (in vitro model of VWMD). The following applies: Homo sapiens, HEK-293T, read-out: ATF4-Luc EC50. The method, then:
as §1, §2

[2] abbreviates: HEK293T ATF4 luciferase reporter cells, 1 μg/mL tunicamycin, 7 hours.

Read-outs that look alike come from different tables or passages of the source.

Turning to `O=C(COc1ccc(C(F)(F)F)nc1)NC12CC(NC(=O)COc3ccc(Cl)c(F)c3)(C1)C2` [Compound 175, 2-(4-chloro-3-fluorophenoxy)-N-[3-(2-{[6-(trifluoromethyl)pyridin-3-yl]oxy}acetamido)bicyclo[1.1.1]pentan-1-yl]acetamide], the 50% effective concentration (EC50) (in general, the midpoint of the concentration-response curve) is below 10 nM in the test with eIF2B mutant B3 I346T; 50 to 250 nM in the test with eIF2B mutant B1 V184; below 10 nM with eIF2B mutant B4 R483W; 10 to 50 nM with eIF2B mutant B5 R113H; 10 to 50 nM in the test on eIF2B mutant B5 R195H; 10 to 50 nM in the test with eIF2B mutant B3 H341Q. In the test on eIF2B mutant B4 R357W, this compound had an EC50 of 10 to 50 nM.

For `Cc1noc(COCC(=O)NC23CC(NC(=O)COc4ccc(Cl)c(F)c4)(C2)C3)n1` [Compound 217, 2-(4-chloro-3-fluorophenoxy)-N-(3-{2-[(3-methyl-1,2,4-oxadiazol-5-yl)methoxy]acetamido}bicyclo[1.1.1]pentan-1-yl)acetamide], the EC50 with eIF2B mutant B3 I346T, in the test on eIF2B mutant B1 V184, in the test with eIF2B mutant B4 R483W, in the test on eIF2B mutant B5 R113H, in the test on eIF2B mutant B5 R195H and with eIF2B mutant B3 H341Q was above 2000 nM throughout. The EC50 with eIF2B mutant B4 R357W is above 2000 nM.

Regarding `O=C(COc1ccc(Cl)cc1)NC12CC(NC(=O)COc3ccc(Cl)cc3)(C1)C2` [Compound 112, N,N′-(bicyclo[1.1.1]pentane-1,3-diyl)bis[2-(4-chlorophenoxy)acetamide]], the EC50 in the test on eIF2B mutant B3 I346T, in the test with eIF2B mutant B1 V184, in the test on eIF2B mutant B4 R483W, in the test with eIF2B mutant B5 R113H, in the test on eIF2B mutant B5 R195H and in the test on eIF2B mutant B3 H341Q was below 10 nM each time. The compound also came in with an EC50 in the test on eIF2B mutant B4 R357W below 10 nM.

For the compound `O=C(COCc1ccc(OC(F)F)nc1)NC12CC(NC(=O)COc3ccc(Cl)c(F)c3)(C1)C2` [Compound 279, 2-(4-chloro-3-fluorophenoxy)-N-[3-(2-{[6-(difluoromethoxy)pyridin-3-yl]methoxy}acetamido)bicyclo[1.1.1]pentan-1-yl]acetamide], the EC50 in test [1] (setting [2]) is 250 to 500000 nM.

Turning to `O=C(COc1ccc(Cl)c(F)c1)NC12CCC(NC(=O)COc3ccc(Cl)c(F)c3)(CC1)[C@H](O)C2` [Compound 298, N,N′-[(2R)-2-hydroxybicyclo[2.2.2]octane-1,4-diyl]bis[2-(4-chloro-3-fluorophenoxy)acetamide]], the EC50 in the test with eIF2B mutant B3 I346T, in the test on eIF2B mutant B1 V184, in the test with eIF2B mutant B4 R483W, with eIF2B mutant B5 R113H, with eIF2B mutant B5 R195H and with eIF2B mutant B3 H341Q was below 10 nM each time. Besides, the EC50 (in the test with eIF2B mutant B4 R357W; in test [1] (setting [2])) was below 10 nM in each case.

Turning to `O=C(COc1ccc(Cl)c(F)c1)NC12CCC(NC(=O)COc3ccc(F)cc3)(CC1)[C@@H](O)C2` [Compound 354, 2-(4-chloro-3-fluorophenoxy)-N-{(3S)-4-[2-(4-fluorophenoxy)acetamido]-3-hydroxybicyclo[2.2.2]octan-1-yl}acetamide], the EC50 in test [1] (setting [2]) is below 10 nM.

`O=C(COCCc1ccc(Cl)cc1)NC12CC(NC(=O)COc3ccc(Cl)c(F)c3)(C1)C2` [Compound 135, 2-(4-chloro-3-fluorophenoxy)-N-(3-{2-[2-(4-chlorophenyl)ethoxy]acetamido}-bicyclo[1.1.1]pentan-1-yl)acetamide]: the EC50 in test [1] (setting [2]) fell in the range of 250 to 500000 nM.

In the case of `COc1ccc(/C=C/C(=O)NC23CC(NC(=O)COc4ccc(Cl)c(F)c4)(C2)C3)cc1` [Compound 347, (2E)-N-{3-[2-(4-chloro-3-fluorophenoxy)acetamido]bicyclo[1.1.1]pentan-1-yl}-3-(4-methoxyphenyl)prop-2-enamide], the EC50 in test [1] (setting [2]) lay in the range of 250 to 500000 nM.

On to `O=C(COc1ccc(Cl)c(F)c1)NC12CCC(NC(=O)COc3ccnn(CC(F)(F)F)c3=O)(CC1)C(O)C2` (centres unmarked) [Compound 333, 2-(4-chloro-3-fluorophenoxy)-N-[3-hydroxy-4-(2-{[3-oxo-2-(2,2,2-trifluoroethyl)-2,3-dihydropyridazin-4-yl]oxy}acetamido)bicyclo[2.2.2]octan-1-yl]acetamide], for which the EC50 in test [1] (setting [2]) fell in the range of 250 to 500000 nM.

As for `O=C(COc1ccc(Cl)c(F)c1)NC12CC(NCC(=O)c3ccc(Cl)c(F)c3)(C1)C2` [Compound 291, 2-(4-chloro-3-fluorophenoxy)-N-(3-{[2-(4-chloro-3-fluorophenyl)-2-oxoethyl]amino}bicyclo[1.1.1]pentan-1-yl)acetamide], in test [1] (setting [2]), the EC50 fell in the range of 250 to 500000 nM.

With `CC(C)(O)c1ccc(OCC(=O)NC23CC(NC(=O)COc4ccc(Cl)c(Cl)c4)(C2)C3)cc1` [Compound 422, 2-(3,4-dichlorophenoxy)-N-(3-{2-[4-(2-hydroxypropan-2-yl)phenoxy]acetamido}bicyclo[1.1.1]pentan-1-yl)acetamide], the EC50 in test [1] (setting [2]) was 250 to 500000 nM.

On to `O=C(COc1ccc(Cl)c(F)c1)NC12CCC(NC(=O)COc3ccnc(C(F)(F)F)c3)(CC1)[C@@H](O)C2` (single isomer, unassigned) [Compound 318], for which the EC50 in test [1] (setting [2]) fell in the range of 10 to 50 nM.

As to `O=C(COc1ccc(Cl)c(F)c1)NC12CC(NC(=O)Oc3ccc(Cl)cc3)(C1)C2` [Compound 434, 4-chlorophenyl {3-[2-(4-chloro-3-fluorophenoxy)acetamido]bicyclo[1.1.1]pentan-1-yl}carbamate], the EC50 in test [1] (7 h) is 250 to 500000 nM.

Turning to `N#Cc1cc(OCC(=O)NC23CC(NC(=O)COc4ccc5c(c4)OC(F)(F)O5)(C2)C3)ccn1` [Compound 270, 2-[(2-cyanopyridin-4-yl)oxy]-N-(3-{2-[(2,2-difluoro-2H-1,3-benzodioxol-5-yl)oxy]acetamido}bicyclo[1.1.1]pentan-1-yl)acetamide], the EC50 in test [1] (setting [2]) fell in the range of 250 to 500000 nM.

As to `O=C(/C=C/c1ccc(C(F)(F)F)nc1)NC12CC(NC(=O)COc3ccc(Cl)c(F)c3)(C1)C2` [Compound 351, (2E)-N-{3-[2-(4-chloro-3-fluorophenoxy)acetamido]bicyclo[1.1.1]pentan-1-yl}-3-[6-(trifluoromethyl)pyridin-3-yl]prop-2-enamide], the EC50 in test [1] (setting [2]) is 250 to 500000 nM.

Consider `O=C(COc1ccc(Cl)c(F)c1)NC12CCC(NC(=O)COc3ncccn3)(CC1)[C@@H](O)C2` [Compound 500, 2-(4-chloro-3-fluorophenoxy)-N-[(3S)-3-hydroxy-4-{2-[(pyrimidin-2-yl)oxy]acetamido}bicyclo[2.2.2]octan-1-yl]acetamide], for which the EC50 in test [1] (setting [2]) is above 2000 nM.

The record behind these values is patent publication US20250122188A1, “MODULATORS OF THE INTEGRATED STRESS PATHWAY” (Calico Life Sciences LLC, priority 2016, published 2025).
